Results from article PMC12040169 (PLOS Biology, 2025).
Converted amounts (≈) assume the structure as drawn. “And” between values parts separate entries of the source, which are not always exact repeats. Equal values may be shown once.

Legend:
in vitro [1] = settings: human, hela cells, % viability
HeLa = settings: bulk resorufin, single well, 28.5 h, 10 µM, Bulk resorufin fluorescence
[2] = tested on: T1, CTL2-GFP (C. trachomatis L2/434/Bu, GFP-expressing); experiment: microbe, parasite or virus in culture; parameters: species or system HeLa; C. trachomatis growth in HeLa, dose-response, mean of bulk GFP fluorescence and imaged total inclusion area; settings: Chlamydia trachomatis, 28.5 h; mean of GFP and inclusion area
T1 construct: L2/434/Bu, GFP-expressing
Text: (§1) We screened a library of 36,785 small molecules displaying drug-like properties and covering a wide chemical space (Fig 1A and S2A Data). In this process, we also complemented the assay described above with an imaging-based readout (Fig 1B). After measurements of bulk GFP and resorufin fluorescence, cells were fixed, stained with the DNA dye Hoechst, and imaged at a high-content imaging platform to detect chlamydial inclusions (GFP) and host cell nuclei (Hoechst). The total area and number of inclusions in individual wells and the number of nuclei then served as additional proxies for chlamydial growth and host cell viability. […] MICs were calculated as described above.

[3] = tested on: T1, CTL2-GFP (C. trachomatis L2/434/Bu, GFP-expressing); experiment: microbe, parasite or virus in culture; parameters: C. trachomatis growth in HeLa, dose-response, mean of bulk GFP fluorescence and imaged total inclusion area; settings: Chlamydia trachomatis, HeLa, 28.5 h; mean of GFP and inclusion area
Text: as §1

in vitro [4] = experiment: in vitro; parameters: Viability of infected HeLa host cells, resazurin conversion, bulk resorufin fluorescence relative to DMSO; settings: human, hela cells; bulk resorufin, mean of 3

Compound	viability at 28.5 h, 10 µM (in vitro [1]) [%]	% viability (HeLa)	also measured
O=C(C1CC1)N1C2CCC(C2)[C@H]1COc1ccc(F)cc1 (stereo partly drawn) [CBK284597]	95	100%	
CCOC(=O)c1[nH]c(C)c(CN2CC3CCCN3C[C@@H]2C)c1C (stereo partly drawn) [CBK285043]	110	105%	
C[C@H]1CN2C[C@H](O)CC2CN1Cc1cc(Br)cs1 (stereo partly drawn) [CBK285044]	103	94%	
COc1ccc2c(CN3CC4CCCN4C[C@H]3C)cn(C)c2c1 (stereo partly drawn) [CBK285164]	92.4	84%	
O=C(Cn1c([C@H]2CCCO2)cc2cccnc21)NC1CCCC1 [CBK285219]	88.8	85.4%	
O=C(c1cccnc1)N1C2CCC(C2)[C@H]1COc1ccc(F)cc1 (stereo partly drawn) [CBK285268]	90.2	87.8%	
C[C@@H]1CN2CCCC2CN1Cc1cc(F)cc(F)c1 (stereo partly drawn) [CBK285405]	96.1	105%	
C[C@@H]1CN2CCCC2CN1Cc1ccsc1 (stereo partly drawn) [CBK285411]	110	109%	
C[C@@H]1CN2C[C@H](O)CC2CN1Cc1cccc(C(F)(F)F)c1 (stereo partly drawn) [CBK285413]	91.7	88.1%	
C=CCn1cc(CN2C[C@@H]3CCCN3C[C@H]2CCSC)c(C)n1 [CBK285420]	87.6	106%	
COCCn1c(C)cc(CN2CC3CCCN3C[C@@H]2C)c1C (stereo partly drawn) [CBK285421]	83.8	101%	
CCOc1ccc(CN2CC3CCCN3C[C@H]2C)cc1 (stereo partly drawn) [CBK285422]	87.8	100%	
COCCn1cc(CN2CC3CCCN3C[C@H]2C)c2ccccc21 (stereo partly drawn) [CBK285427]	95.7	106%	
Cc1cc(CN2CC3CCCN3C[C@@H]2C)c(C)n1-c1ccccn1 (stereo partly drawn) [CBK285431]	87	98.1%	
CC(C)n1cc(CN2CC3C[C@@H](O)CN3C[C@H]2C)c2ccccc21 (stereo partly drawn) [CBK285437]	107	88.8%	
C[C@@H]1CN2CCCC2CN1Cc1cc(F)ccc1F (stereo partly drawn) [CBK285444]	104	94.9%	
C[C@@H]1CN2CCCC2CN1Cc1ccc(F)c(F)c1 (stereo partly drawn) [CBK285445]	99.5	105%	
CCn1ncc(CN2C[C@@H]3CCCN3C[C@@H]2CCSC)c1C [CBK285446]	109	110%	
Cc1cc(CN2CC3CCCN3C[C@H]2C)oc1C (stereo partly drawn) [CBK285449]	96.9	103%	
CCn1cc(CN2C[C@@H]3CCCN3C[C@H]2CCSC)c(C)n1 [CBK285460]	96.3	99.1%	
COc1ccc(CC(=O)N2CCN(Cc3ccco3)C[C@H]2C)cc1 [CBK285483]	96	104%	
O=C(NC1CC1)[C@H]1C=CCN1S(=O)(=O)c1cccc(F)c1 [CBK285485]	111	98.9%	
O=C(CN1C(=O)[C@@H]2CCCN2c2ncccc21)NCc1ccccc1 [CBK286203]	115	117%	
O=C(CN1C(=O)[C@@H]2CCCN2C(=O)c2ccccc21)N1CCOCC1 [CBK286401]	83.9	103%	

Compound	viability at 28.5 h, 10 µM (in vitro [1]) [%]	% viability (HeLa)	also measured
Cc1cc2ncn(C3CC(=O)N(c4ccc(C(=O)O)cc4)C3=O)c2cc1C (stereo not drawn) [CBK286586]	89.4	92.4%	
O=C(O)c1cc(-c2ccccc2)c2c(=O)[nH][nH]c2n1 [CBK286631]	105	102% and 88.2%	
O=C(O)c1cccc2c1C(=O)N(Cc1ccccc1)C2 [CBK286872]	91	89.1%	
NS(=O)(=O)c1ccc2nc(NC(=O)c3ccc(Cl)s3)sc2c1 [CBK287320]	108	89.6%	
Cc1ccc(-c2csc3c(=O)[nH]c(N4CCC5(CC4)OCCO5)nc23)cc1 [CBK288034]	83.9	92.2%	
NCCc1c(C23CC4CC(CC(C4)C2)C3)[nH][nH]c1=O [CBK288081]	86.5	106%	
O=C(CC1C(=O)NC(=O)N1Cc1ccccc1)NCc1ccccc1 (stereo not drawn) [CBK288083]	87.8	94.6%	
Cc1ccc(Nc2cc(N3CCC(C(=O)O)CC3)ncn2)cc1 [CBK288121]	104	91.3%	
CN1CCc2[nH]c(=S)c(C#N)c(-c3ccccc3)c2C1 [CBK288354]	96.5	87.1%	
C/C(=N\O)c1cc2cc(Cl)cc(Cl)c2oc1=O [CBK288516]	84.5	90.6%	
COc1ccccc1N1C(=O)CC(=O)N=C1S [CBK288517]	89.5	89.3%	
Cc1cc(CNC(=S)NC2CCCCC2)nn1C [CBK288519]	82.5	94%	
COCCn1c(S)nc(=O)c2cc(C)cnc21 [CBK288520]	88	92.2%	
O=C1CSC(c2ccc(Br)cc2)N1O (stereo not drawn) [CBK288521]	89	97.7%	
CCOc1ccc(CCN2C(=O)CN=C2S)cc1OCC [CBK288528]	103	98.3%	
Cc1ccc(Cn2cc(Br)c(NC(=O)C(=O)O)n2)cc1 [CBK288529]	96.9	88.4%	
COc1ccc(C(NC(=O)Cc2cn3ccsc3n2)C2CC(O)C2)cn1 (stereo not drawn) [CBK306910]	82.2	97%	
COc1nccc(NC(c2cnn(C)c2)[C@H]2C[C@H](O)C2)c1C#N (stereo partly drawn) [CBK307283]	94	91.1%	
OCCNc1nc(Nc2ccc(Br)cc2)nc2ccccc12 [c17e]			MIC [2]: 3.14 µM (≈ 1.13 µg/mL); IC50 [3]: 1.24 µM; viability at 28.5 h, 0.000416667 µM (in vitro [4]): 95.2%; viability at 28.5 h, 0.00125 µM (in vitro [4]): 87.1%; viability at 28.5 h, 0.00375 µM (in vitro [4]): 86.4%; viability at 28.5 h, 0.0123333 µM (in vitro [4]): 86.4%; viability at 28.5 h, 0.037 µM (in vitro [4]): 88.2%; viability at 28.5 h, 0.111 µM (in vitro [4]): 83.5%; viability at 28.5 h, 0.333 µM (in vitro [4]): 88.9%; viability at 28.5 h, 1 µM (in vitro [4]): 86%; viability at 28.5 h, 3 µM (in vitro [4]): 84.9%; viability at 28.5 h, 10 µM (in vitro [4]): 81.2%; viability at 28.5 h, 30 µM (in vitro [4]): 71.2%
COCCNc1nc2c(c(N3CCCCCC3)n1)CCNCC2 [c18e]			MIC [2]: 1.94 µM (≈ 0.619 µg/mL); IC50 [3]: 1.27 µM; viability at 28.5 h, 0.000416667 µM (in vitro [4]): 113%; viability at 28.5 h, 0.00125 µM (in vitro [4]): 109%; viability at 28.5 h, 0.00375 µM (in vitro [4]): 109%; viability at 28.5 h, 0.0123333 µM (in vitro [4]): 108%; viability at 28.5 h, 0.037 µM (in vitro [4]): 110%; viability at 28.5 h, 0.111 µM (in vitro [4]): 106%; viability at 28.5 h, 0.333 µM (in vitro [4]): 107%; viability at 28.5 h, 1 µM (in vitro [4]): 102%; viability at 28.5 h, 3 µM (in vitro [4]): 108%; viability at 28.5 h, 10 µM (in vitro [4]): 101%; viability at 28.5 h, 30 µM (in vitro [4]): 103%
CC1=C(C)C(=NNC(N)=S)C(C)=C(C)C1=NNC(N)=S [c19e]			MIC [2]: 3.58 µM (≈ 1.11 µg/mL); IC50 [3]: 1.39 µM; viability at 28.5 h, 0.000416667 µM (in vitro [4]): 101%; viability at 28.5 h, 0.00125 µM (in vitro [4]): 103%; viability at 28.5 h, 0.00375 µM (in vitro [4]): 109%; viability at 28.5 h, 0.0123333 µM (in vitro [4]): 101%; viability at 28.5 h, 0.037 µM (in vitro [4]): 101%; viability at 28.5 h, 0.111 µM (in vitro [4]): 107%; viability at 28.5 h, 0.333 µM (in vitro [4]): 104%; viability at 28.5 h, 1 µM (in vitro [4]): 103%; viability at 28.5 h, 3 µM (in vitro [4]): 107%; viability at 28.5 h, 10 µM (in vitro [4]): 109%; viability at 28.5 h, 30 µM (in vitro [4]): 114%
Cc1noc(-c2ccc3c(c2O)OCCO3)c1-c1ccc(Cl)cc1 [c20e]			MIC [2]: 2.69 µM (≈ 0.926 µg/mL); IC50 [3]: 1.39 µM; viability at 28.5 h, 0.000416667 µM (in vitro [4]): 99.7%; viability at 28.5 h, 0.00125 µM (in vitro [4]): 97%; viability at 28.5 h, 0.00375 µM (in vitro [4]): 93.1%; viability at 28.5 h, 0.0123333 µM (in vitro [4]): 91.8%; viability at 28.5 h, 0.037 µM (in vitro [4]): 94.3%; viability at 28.5 h, 0.111 µM (in vitro [4]): 86.5%; viability at 28.5 h, 0.333 µM (in vitro [4]): 88.7%; viability at 28.5 h, 1 µM (in vitro [4]): 86.1%; viability at 28.5 h, 3 µM (in vitro [4]): 83.4%; viability at 28.5 h, 10 µM (in vitro [4]): 85.9%; viability at 28.5 h, 30 µM (in vitro [4]): 75.6%
Fc1cccc(F)c1OCCOc1nc(N2CCNCC2)ccc1C(F)(F)F [c21e]			MIC [2]: 8.28 µM (≈ 3.34 µg/mL); IC50 [3]: 1.7 µM; viability at 28.5 h, 0.000416667 µM (in vitro [4]): 85.4%; viability at 28.5 h, 0.00125 µM (in vitro [4]): 87.7%; viability at 28.5 h, 0.00375 µM (in vitro [4]): 84%; viability at 28.5 h, 0.0123333 µM (in vitro [4]): 87.6%; viability at 28.5 h, 0.037 µM (in vitro [4]): 84.7%; viability at 28.5 h, 0.111 µM (in vitro [4]): 89.9%; viability at 28.5 h, 0.333 µM (in vitro [4]): 90.4%; viability at 28.5 h, 1 µM (in vitro [4]): 93.9%; viability at 28.5 h, 3 µM (in vitro [4]): 87.9%; viability at 28.5 h, 10 µM (in vitro [4]): 91.3%; viability at 28.5 h, 30 µM (in vitro [4]): 0%
O=[N+]([O-])c1ccc2[nH]c3c(c2c1)CCCC3NC1CCN(CCc2ccccc2)CC1 (stereo not drawn) [c23e]			MIC [2]: 4 µM (≈ 1.68 µg/mL); IC50 [3]: 2.18 µM; viability at 28.5 h, 0.000416667 µM (in vitro [4]): 96.2%; viability at 28.5 h, 0.00125 µM (in vitro [4]): 90.3%; viability at 28.5 h, 0.00375 µM (in vitro [4]): 91.9%; viability at 28.5 h, 0.0123333 µM (in vitro [4]): 88%; viability at 28.5 h, 0.037 µM (in vitro [4]): 86.6%; viability at 28.5 h, 0.111 µM (in vitro [4]): 87.4%; viability at 28.5 h, 0.333 µM (in vitro [4]): 90.5%; viability at 28.5 h, 1 µM (in vitro [4]): 83.9%; viability at 28.5 h, 3 µM (in vitro [4]): 93.2%; viability at 28.5 h, 10 µM (in vitro [4]): 76%; viability at 28.5 h, 30 µM (in vitro [4]): 6.18%
